Test results reported in patent publication US11066455B2, “Tmem100 peptides and variants thereof and their use in treating or preventing diseases or conditions” (The Johns Hopkins University, priority 2014, dated 2021).
* marks the point of attachment. Myristoyl = CCCCCCCCCCCCCC(=O)*

Assays:
[1] = system: CFA-induced hyperalgesia in mice; assay: CFA injection: mechanical (von Frey) and thermal (Hargreaves) hyperalgesia; assay type: in vivo, mouse; details: peptide 5 μl of 2 mM; 3 hours after treatment
Method: Mice were placed in a transparent plastic box (4.5×5×10 cm) on a metal mesh and acclimatized for 30 minutes prior to testing. Each mouse was tested more than 5 times at a specific force manually, and the threshold was determined by the lowest force needed to elicit responses more than 50% of the time.
Mice were placed under a transparent plastic box (4.5×5×10 cm) on a glass platform (Plantar Test Apparatus, IITC Life Science). Radiant heat was adjusted to 18% of maximal output and shone on the center of the paws. Each mouse was tested more than 3 times, with each test performed 20 minutes apart.
Mice were injected with 6 μL of 50% emulsified Complete Freund's Adjuvant (Sigma, F5881) in normal saline.
The sequence from the last 28 amino acids of the C-terminus of the Tmem100-3Q mutant protein was synthesized and myristoylated at its N-terminus (myr-[…]-COOH) (SEQ ID NO: 8) by Twentyfirst Century Biochemicals. […] For the calcium imaging assay, the peptides were added to the calcium imaging buffer with a final concentration of 200 nM and incubated for at least […] at room temperature. For the mice behavioral assays, the peptides (5 μL, 2 mM) were injected subcutaneously in the hindpaw at least 30 minutes before testing. For the rat behavior assays, human T100-3Q (h-T100), a palmitoylated cell permeable peptide mutated based on the C terminus of human sequence in Tmem100, was applied. […]

TRPV1 = target: T1, TRPV1 (Mus musculus, UniProt Q704Y3); assay: Calcium imaging of DRG neurons, response to capsaicin (CAP); assay type: cell-based; details: peptide 200 nM pretreatment; 100 nM CAP; IB4-negative DRG neurons
T1 construct: calcium imaging data from the T100-Mut-treated (200 nM) DRG neurons; endogenous in cells; host or cells: primary mouse DRG neurons
Method: Calcium imaging assays were performed as previously described (Liu et al., 2009). Cells were loaded with 2 μM fura 2-acetomethoxy ester (Molecular Probes) for 30 min in the dark at room temperature or for 45 minutes at 37° C. for DRG and cell lines, respectively. After washing, cells were imaged at 340 and 380 nm excitation to detect intracellular free calcium under a fluorescent microscope (Nikon Eclipse TE2000-S) and Lambda 10B shutter (Sutter Instrument). The cells were bathed in calcium imaging buffer (pH 7.45, 130 mM NaCl, 3 mM KCl, 2.5 mM CaCl2, 10 mM HEPES, 10 mM glucose, 1.2 mM NaHCO3, with sucrose to increase osmolarity to 290 mOsm). […] Images were processed and analyzed with NIS-Elements BR 2.30 software (Nikon). […] The data was analyzed with the experimenter blinded to the genotypes or constructs transfected.
DRG from 3 to 4-week old mice were collected in cold DH10 medium (90% DMEM/F-12, 10% FBS, 100 U/ml penicillin, and 100 μg/ml Streptomycin, Gibco) and treated with enzyme solution in HBSS containing collagenase (1.65 mg/mL, Worthington CLS I) and dispase (3.55 mg/mL, GIBCO 17105-041) at 37° C. for 30 minutes. […] This efficiency was determined by mCherry(+) divided by total number of cells in the bright fields. […]

[2] = system: neuropathic mechanical hypersensitivity in SNL rats; assay type: in vivo, rat; details: intrathecal 10 μl; h-T100 10-100 μM, HC-030031 10-200 μM, scrambled 100 μM
Text: An modified L5 SNL model was produced as described in previously (He et al., 2014; Shechter et al., 2013). Male Sprague-Dawley rats (200-350 g, Harlan, Indianapolis, Ind.) were anesthetized with 2% isoflurane. The left L5 spinal nerve was ligated with a 6-0 silk suture and cut distally. The muscle layer was closed with 4-0 chromic gut suture and the skin closed with metal clips. For intrathecal catheter implantation, a small slit was cut in the atlanto-occipital membrane of rats, into which a saline-filled piece of PE-10 tubing (6-7 cm) was inserted (He et al., 2014). […] Hypersensitivity to punctuate mechanical stimulation was determined with the up-down method by using a series of von Frey filaments (0.38-15.1 g) applied for 4-6 seconds to the test area on the plantar surface of the hindpaw (Chaplan et al., 1994; He et al., 2014). The PWT was determined according to the formula provided by Dixon (Dixon, 1980). […] HC-030031 was purchased from Tocris Bioscience (Bristol, UK). Both drugs were dissolved in 10% dimethylsulfoxide (DMSO), 5% Tween 80 and 85% sterile saline solution. The final working solution which was injected by intrathecal route contained <1% DMSO. The number of animals used in each study was based on experience with similar studies and power analysis calculations. Animals were randomized to the different treatment groups and blinded the experimenter to drug treatment to reduce selection and observation bias. After the experiments were completed, no data point was excluded. STATISTICA 6.0 software (StatSoft, Inc., Tulsa, Okla.) was used to conduct all statistical analyses. The Tukey honestly significant difference (HSD) post-hoc test was used to compare specific data points. Bonferroni correction was applied for multiple comparisons. Two-tailed tests were performed, and data are expressed as mean±SEM; P<0.05 was considered significant in all tests.
The sequence from the last 28 amino acids of the C-terminus of the Tmem100-3Q mutant protein was synthesized and myristoylated at its N-terminus (myr-[…]-COOH) (SEQ ID NO: 8) by Twentyfirst Century Biochemicals. […] For the calcium imaging assay, the peptides were added to the calcium imaging buffer with a final concentration of 200 nM and incubated for at least […] at room temperature. For the mice behavioral assays, the peptides (5 μL, 2 mM) were injected subcutaneously in the hindpaw at least 30 minutes before testing. For the rat behavior assays, human T100-3Q (h-T100), a palmitoylated cell permeable peptide mutated based on the C terminus of human sequence in Tmem100, was applied. The sequence is Palmitoyl-[…]-COOH (SEQ ID NO: 7).

T1 sequence (Q704Y3 whole entry): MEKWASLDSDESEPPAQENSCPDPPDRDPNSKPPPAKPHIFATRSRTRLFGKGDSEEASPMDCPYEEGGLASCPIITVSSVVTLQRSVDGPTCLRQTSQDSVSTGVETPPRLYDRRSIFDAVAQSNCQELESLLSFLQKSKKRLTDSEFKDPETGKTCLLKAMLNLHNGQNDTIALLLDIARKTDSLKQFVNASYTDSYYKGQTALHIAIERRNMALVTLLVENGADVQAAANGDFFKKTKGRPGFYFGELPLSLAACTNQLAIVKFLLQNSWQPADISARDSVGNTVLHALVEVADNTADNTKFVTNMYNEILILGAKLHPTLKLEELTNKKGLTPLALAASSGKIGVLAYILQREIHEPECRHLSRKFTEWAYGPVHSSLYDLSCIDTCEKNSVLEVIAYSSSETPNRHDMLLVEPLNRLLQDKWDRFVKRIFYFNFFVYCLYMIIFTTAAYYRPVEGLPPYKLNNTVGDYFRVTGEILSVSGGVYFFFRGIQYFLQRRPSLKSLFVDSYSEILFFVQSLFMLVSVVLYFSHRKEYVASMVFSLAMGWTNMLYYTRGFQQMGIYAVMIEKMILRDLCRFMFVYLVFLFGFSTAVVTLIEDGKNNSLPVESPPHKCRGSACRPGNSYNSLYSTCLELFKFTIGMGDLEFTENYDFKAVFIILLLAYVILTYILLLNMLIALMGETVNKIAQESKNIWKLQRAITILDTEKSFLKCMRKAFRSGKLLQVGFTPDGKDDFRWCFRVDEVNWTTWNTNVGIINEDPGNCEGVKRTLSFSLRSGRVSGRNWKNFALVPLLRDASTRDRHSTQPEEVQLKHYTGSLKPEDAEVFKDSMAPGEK

Substance: myr-QRVLEQVLQNWSRRANVKQAQKFQVKCT-COOH (Myristoyl-QRVLEQVLQNWSRRANVKQAQKFQVKCT-OH; SMILES CCCCCCCCCCCCCC(=O)N[C@@H](CCC(N)=O)C(=O)N[C@@H](CCCNC(=N)N)C(=O)N[C@H](C(=O)N[C@@H](CC(C)C)C(=O)N[C@@H](CCC(=O)O)C(=O)N[C@@H](CCC(N)=O)C(=O)N[C@H](C(=O)N[C@@H](CC(C)C)C(=O)N[C@@H](CCC(N)=O)C(=O)N[C@@H](CC(N)=O)C(=O)N[C@@H](Cc1c[nH]c2ccccc12)C(=O)N[C@@H](CO)C(=O)N[C@@H](CCCNC(=N)N)C(=O)N[C@@H](CCCNC(=N)N)C(=O)N[C@@H](C)C(=O)N[C@@H](CC(N)=O)C(=O)N[C@H](C(=O)N[C@@H](CCCCN)C(=O)N[C@@H](CCC(N)=O)C(=O)N[C@@H](C)C(=O)N[C@@H](CCC(N)=O)C(=O)N[C@@H](CCCCN)C(=O)N[C@@H](Cc1ccccc1)C(=O)N[C@@H](CCC(N)=O)C(=O)N[C@H](C(=O)N[C@@H](CCCCN)C(=O)N[C@@H](CS)C(=O)N[C@H](C(=O)O)[C@@H](C)O)C(C)C)C(C)C)C(C)C)C(C)C) [scrambled]
- CFA-induced mechanical hyperalgesia (mechanical threshold) [1]: 0.05 ± 0.0 g
- CFA-induced thermal hyperalgesia (latency) [1]: 3.9 ± 0.6 s
- percentage of DRG neurons responding to CAP (TRPV1): 16±1.3%
- ipsilateral paw withdrawal threshold (PWT) vs pre-drug [2]: no effect
